For one assay, the system named is Ba/F3 cells KRAS G12C. In words: Ba/F3 proliferation assay (KRAS G12C). The assay is classed as cell-based. As to conditions: AlamarBlue viability. The essentials:
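Ba/F3 cells retrovirally transduced with KRAS G12 mutant, puromycin-selected, grown IL-3-independent; seeded in RPMI-1640 + 10% FCS without IL-3. Logarithmic compound dose series in duplicate, 72 h at 37° C., AlamarBlue fluorescence as % of DMSO control; IC50 from four-parameter non-linear regression.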

The target in assay [1] is KRAS (G12D)::SOS1 protein-protein interaction (Homo sapiens (Human), UniProt P01116, G12D). Kind of assay: KRAS::SOS1 AlphaScreen binding assay (KRAS G12D). As to conditions: GDP. In outline:
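AlphaScreen assay with KRAS G12D (1-169, 6His/avi-tagged, 10 nM), GST-SOS1 564-1049 (5 nM) and GDP (10 μM) in PBS, 0.1% BSA, 0.05% Tween 20; compound up to 100 μM top concentration, eleven fivefold dilutions in duplicate. After 30 min, glutathione acceptor and streptavidin donor beads (10 μg/mL each) were added and signal read after a further 60 min at room temperature in the dark; IC50 from 4-parameter logistic fit.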
In general terms: Alpha assays give light when donor and acceptor beads are brought close together.

A further assay deals with NCI-H358 cells. In words: NCI-H358 CTG proliferation assay (120 h) (NSCLC, G12C). The assay is classed as cell-based. In outline:
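Cells seeded at 200 per well in RPMI-1640 with 10% FCS, left overnight, then treated with a logarithmic dose series in duplicate for 120 h. Viability measured by CellTiter-Glo luminescence as percent of DMSO controls; IC50 from four-parameter non-linear regression.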

Each structure is given as a SMILES string. Read-outs that look alike come from different tables or passages of the source.

Usually IC50 stands for the concentration at which inhibition is half-maximal. Low values mean greater potency, high ones weaker potency.

KRAS (G12D)::SOS1 protein-protein interaction, sequence (P01116 other isoform, or with tags, fused parts or gaps G12D): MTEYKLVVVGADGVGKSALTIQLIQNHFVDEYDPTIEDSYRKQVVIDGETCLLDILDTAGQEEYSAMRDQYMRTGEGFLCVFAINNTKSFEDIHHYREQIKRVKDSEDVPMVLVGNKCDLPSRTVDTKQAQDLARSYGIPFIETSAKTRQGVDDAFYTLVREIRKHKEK

`CO[C@H]1CCN(C)[C@@H]1[C@H](C)Oc1nc(-c2noc3c2CCC[C@@]32CCCc3sc(N)c(C#N)c32)nc2c1CN(C1COC1)C[C@]21CCOC1` [II-13]: the IC50 in the assay on Ba/F3 cells KRAS G12C (Mus musculus, BaF3, 72 h) turned out to be 2 nM; in assay [1], 1 nM; in the assay on NCI-H358 cells (Homo sapiens), 2 nM.

Turning to `CO[C@@H]1C[C@@H]([C@H](C)Oc2nc(-c3noc4c3CCC[C@@]43CCCc4sc(N)c(C#N)c43)nc3c2CN(C2COC2)C[C@]32CCOC2)N(C)C1` [II-14], the IC50 in the assay on Ba/F3 cells KRAS G12C (Mus musculus, BaF3, 72 h) amounted to 3 nM; in assay [1] it was 1 nM; in the assay with NCI-H358 cells (Homo sapiens), 4 nM.

In the case of `C[C@H](Oc1nc(-c2noc3c2CCC[C@@]32CCCc3sc(N)c(C#N)c32)nc2c1CNC[C@]21CCOC1)[C@@H]1CCCN1C` [II-15], the IC50 in the assay with Ba/F3 cells KRAS G12C (Mus musculus, BaF3, 72 h) was determined as 1 nM; in assay [1], 1 nM; with NCI-H358 cells (Homo sapiens), 1 nM.

As for `C[C@H](Oc1nc(-c2noc3c2CCC[C@@]32SCCc3sc(N)c(C#N)c32)nc2c1COC[C@]21CCOC1)[C@@H]1CCCN1C` [II-16], the IC50 with Ba/F3 cells KRAS G12C (Mus musculus, BaF3, 72 h) amounted to 1 nM; in assay [1], 1 nM; in the assay with NCI-H358 cells (Homo sapiens) it was 1 nM.

As for `C[C@H](Oc1nc(-c2noc3c2CCC[C@@]32CCCc3sc(N)c(C#N)c32)nc2c1CN(C1COC1)C[C@]21CCOC1)[C@@H]1CC[C@H](C)N1C` [II-17], the IC50 with Ba/F3 cells KRAS G12C (Mus musculus, BaF3, 72 h) came out at 3 nM; in assay [1], 1 nM; with NCI-H358 cells (Homo sapiens) it was 5 nM.

In the case of `C[C@H](Oc1nc(-c2noc3c2CCC[C@@]32CCCc3sc(N)c(C#N)c32)nc2c1CCC21CCOC1)[C@@H]1CCCN1C` (stereo partly drawn) [II-18], the concentration for half-maximal inhibition (IC50) was 31 nM with Ba/F3 cells KRAS G12C (Mus musculus, BaF3, 72 h); 2 nM in assay [1]; 43 nM in the assay on NCI-H358 cells (Homo sapiens).

In the case of `C[C@H](Oc1nc(-c2noc3c2CCC[C@@]32CCCc3sc(N)c(C#N)c32)nc2c1CC[C@]21CNCCO1)[C@@H]1C[C@@H](F)CN1C` [II-20], the IC50 came to 181 nM in the assay with Ba/F3 cells KRAS G12C (72 h), 1 nM in assay [1] and 59 nM with NCI-H358 cells.

The values are drawn from patent US20250019385A1, “SPIROCYCLIC ANNULATED 2-AMINO-3-CYANO THIOPHENES AND DERIVATIVES FOR THE TREATMENT OF CANCER” (Boehringer Ingelheim International GmbH, priority 2023, published 2025).
